From patent publication EP0054898A1, “Formamidine derivatives, preparation and use thereof, pharmaceutical compositions containing them and their preparation” (HOECHST AKTIENGESELLSCHAFT, priority 1980, dated 1982)

Tests used:
Serum-Lipoproteine = experiment: Effect on serum lipoproteins (cholesterol in serum and in ultracentrifuge fractions) in rats after 7 days of oral treatment; type: in vivo, männlichen Wistar-Ratten; conditions: for % Veränderung des Cholesterins gegenüber Kontrolle im Serum / % Veränderung des Cholesterins gegenüber Kontrolle in der Serum-Lipoprotein-Fraktion HDL / % Veränderung des Cholesterins gegenüber Kontrolle in der Serum-Lipoprotein-Fraktion LDL / % Veränderung des Cholesterins gegenüber Kontrolle in der Serum-Lipoprotein-Fraktion VLDL: oral (gavage), 7 days, pooled serum
Description: Die Wirkung der angeführten Verbindungen auf die Serum- Lipoproteine wurde an männlichen Wistar-Ratten untersucht, die 7 Tage per Schlundsonde mit den angeführten in Polyäthylenglykol 400 suspendierten Verbindungen behandelt wurden. Außerdem wurde eine Kontrollgruppe, die nur das Lösungsmittel Polyäthylenglykol 400 erhielt, mitgeführt, sowie eine Ratten-Gruppe, die zum Vergleich das Standardhypolipidämikum Clofibrat, ebenfalls in Polyäthylenglykol 400 gelöst, erhielt. Pro Gruppe wurden in der Regel 10 Tiere eingesetzt, denen am Ende der Behandlung das Blut nach leichter Äthernakose aus dem Orbitalplexus entnommen wurde. Das daraus gewonnene Serum wurde gepoolt. Die Serum- Lipoproteine wurden in der Ultrazentrifuge in folgende Dichteklassen getrennt: • VLDL 1,006; LDL 1,006 bis 1,04; HDL 1,04 bis 1,21.
Aus den in der Ultrazentrifuge isolierten LipoproteinFraktionen wurde das darin enthaltene Choletserin vollenzymatisch nach der CHOD-PAP-Methode mittels der Testkombination von Boehringer Mannheim bestimmt und die Werte in ug/ml Serum umgerechnet. In der angeführten Tabelle (S.8) ist die Veränderung des Lipoprotein-Cholesterins in der behandelten Gruppe gegenüber einer unter gleichen Bedingungen mitgeführten Kontrollgruppe angegeben.
% Veränderung der Lipoproteine in Ratten-Serum nach siebentägiger oraler Behandlung mit den Verbindungen

Relative liver weight = type: in vivo; conditions: in wirksamer Dosis; result in words
Description: Es ist allgemein anerkannt, daß für die Entstehung artericsklerotischer Gefäßveränderungen, insbesondere der coronaren Herzkrankheit, Hyperlipoproteinämien einen wesentlichen Risikofaktor darstellen. Für die Prophylaxe und die Regression von atherosklerotischen Veränderungen kommt daher der Senkung erhöhter Serum-Lipoproteine eine außerordentliche Bedeutung zu. Hierbei kommt es aber auf ganz bestimmte Klassen von Serum-Lipoproteinen an, da die low density (LDL) und very low density-Lipoproteine (VLDL) einen atherogenen Risikofaktor darstellen, während die high density-Lipoproteine (HDL) eine Schutzfunktion gegenüber der coronaren Herzkrankheit darstellen. Hypolipidämika sollen demnach VLDL-Cholesterin und LDL-Cholesterin im Serum erniedrigen, dabei aber die HDL-Cholesterin-Konzentration nach Möglichkeit unbeeinflußt lassen oder sogar erhöhen. Die erfindungsgemäßen Verbindungen haben wertvolle therapeutische Eigenschaften. So erniedrigen sie vor allem die Konzentration von LDL und VLDL, während die HDL-Fraktion entweder in wesentlich geringerem Maße erniedrigt, oder sogar erhöht wird..Sie können daher zur Prophylaxe und Regression von atherosklerotischen Veränderungen herangezogen werden, indem sie einen kausalen Risikofaktor ausschalten. Hierzu zählen nicht nur die primären Hyperlipoproteinämien, sondern auch gewisse.sekundäre Hyperlipidämien wie sie z.B. beim Diabtes vorkommen.

| Compound | % Veränderung des Cholesterins gegenüber Kontrolle im Serum (Serum-Lipoproteine; Dosis 10 mg/kg/Tag) | % Veränderung des Cholesterins gegenüber Kontrolle in der Serum-Lipoprotein-Fraktion HDL (Serum-Lipoproteine; Dosis 10 mg/kg/Tag) | % Veränderung des Cholesterins gegenüber Kontrolle in der Serum-Lipoprotein-Fraktion LDL (Serum-Lipoproteine; Dosis 10 mg/kg/Tag) | % Veränderung des Cholesterins gegenüber Kontrolle in der Serum-Lipoprotein-Fraktion VLDL (Serum-Lipoproteine; Dosis 10 mg/kg/Tag) | also measured |
| --- | --- | --- | --- | --- | --- |
| CN(C#N)C=Nc1ccc(Oc2ccc(Cl)cc2Cl)cc1 [Beispiel 49] |  |  |  |  | % Veränderung des Cholesterins gegenüber Kontrolle im Serum (Serum-Lipoproteine; Dosis 3 mg/kg/Tag): +2%; % Veränderung des Cholesterins gegenüber Kontrolle in der Serum-Lipoprotein-Fraktion HDL (Serum-Lipoproteine; Dosis 3 mg/kg/Tag): +2%; % Veränderung des Cholesterins gegenüber Kontrolle in der Serum-Lipoprotein-Fraktion LDL (Serum-Lipoproteine; Dosis 3 mg/kg/Tag): -48% |
| Cc1ccc(S(=O)(=O)N(C)C=Nc2cc(C(F)(F)F)cc(C(F)(F)F)c2)cc1 [Beispiel 36] | -2% |  |  |  |  |
| CCOC(=O)C(C)(C)Oc1ccc(Cl)cc1 [Clofibrat, reference compound] |  |  |  |  | % Veränderung des Cholesterins gegenüber Kontrolle im Serum (Serum-Lipoproteine; Dosis 100 mg/kg/Tag): -24%; % Veränderung des Cholesterins gegenüber Kontrolle in der Serum-Lipoprotein-Fraktion HDL (Serum-Lipoproteine; Dosis 100 mg/kg/Tag): -33%; % Veränderung des Cholesterins gegenüber Kontrolle in der Serum-Lipoprotein-Fraktion LDL (Serum-Lipoproteine; Dosis 100 mg/kg/Tag): -25%; % Veränderung des Cholesterins gegenüber Kontrolle in der Serum-Lipoprotein-Fraktion VLDL (Serum-Lipoproteine; Dosis 100 mg/kg/Tag): -30%; Wirkung auf die Lipoproteinfraktionen (VLDL, LDL, HDL) (Serum-Lipoproteine; summary in words of the table, 7 days oral): etwa gleichstarke Senkung der LDL-Fraktion und der HDL-Fraktion; relatives Lebergewicht (Relative liver weight): starken Erhöhung des relativen Lebergewichts |
| C#CCN(C=Nc1ccc(Oc2ccccc2)cc1)S(=O)(=O)c1ccc(C)cc1 [Beispiel 7] | -1% | +5% | -22% | -51% |  |
| Cc1ccc(S(=O)(=O)N(C=Nc2ccc(Sc3ccccc3)cc2)C(C)C)cc1 [Beispiel 28] |  |  |  |  | % Veränderung des Cholesterins gegenüber Kontrolle im Serum (Serum-Lipoproteine; Dosis 3 mg/kg/Tag): -5%; % Veränderung des Cholesterins gegenüber Kontrolle in der Serum-Lipoprotein-Fraktion HDL (Serum-Lipoproteine; Dosis 3 mg/kg/Tag): +2%; % Veränderung des Cholesterins gegenüber Kontrolle in der Serum-Lipoprotein-Fraktion LDL (Serum-Lipoproteine; Dosis 3 mg/kg/Tag): -25%; % Veränderung des Cholesterins gegenüber Kontrolle in der Serum-Lipoprotein-Fraktion VLDL (Serum-Lipoproteine; Dosis 3 mg/kg/Tag): -5% |
| Cc1ccc(S(=O)(=O)N(C=Nc2ccc(Oc3ccccc3)cc2)Cc2ccccc2)cc1 [Beispiel 2] | -4% | +3% | -22% | -50% |  |
| CCN(C=Nc1ccc(Sc2ccccc2)cc1)S(=O)(=O)c1ccc(C)cc1 [Beispiel 30] | -3% | -1% | -27% |  |  |
| Cc1ccc(S(=O)(=O)N(C)C=Nc2ccc(Oc3ccc(Cl)cc3Cl)cc2)cc1 [Beispiel 13] | -6% | +1% | -39% | -100% |  |
| Cc1ccc(S(=O)(=O)N(C)C=Nc2ccc(Cl)cc2C(F)(F)F)cc1 [Beispiel 39] |  |  |  |  | % Veränderung des Cholesterins gegenüber Kontrolle im Serum (Serum-Lipoproteine; Dosis 3 mg/kg/Tag): -3%; % Veränderung des Cholesterins gegenüber Kontrolle in der Serum-Lipoprotein-Fraktion HDL (Serum-Lipoproteine; Dosis 3 mg/kg/Tag): -7%; % Veränderung des Cholesterins gegenüber Kontrolle in der Serum-Lipoprotein-Fraktion LDL (Serum-Lipoproteine; Dosis 3 mg/kg/Tag): -26%; % Veränderung des Cholesterins gegenüber Kontrolle in der Serum-Lipoprotein-Fraktion VLDL (Serum-Lipoproteine; Dosis 3 mg/kg/Tag): -26% |
| Cc1ccc(S(=O)(=O)N(C)C=Nc2ccc(Oc3ccccc3)cc2)cc1 [Beispiel 12] | -6% | -1% | -42% | -70% |  |
| Cc1ccc(S(=O)(=O)N(C)C=Nc2c(C)cc(C)cc2C)cc1 [Beispiel 34] | +10% | +14% | -36% |  |  |
| CN(C#N)C=Nc1ccc(Oc2ccc(Cl)cc2)c(Cl)c1 [Beispiel 50] |  |  |  |  | % Veränderung des Cholesterins gegenüber Kontrolle in der Serum-Lipoprotein-Fraktion VLDL (Serum-Lipoproteine; Dosis 1 mg/kg/Tag): +3% |
| CCCCN(C=Nc1ccc(Sc2ccccc2)cc1)S(=O)(=O)c1ccc(C)cc1 [Beispiel 27] |  |  |  |  | % Veränderung des Cholesterins gegenüber Kontrolle im Serum (Serum-Lipoproteine; Dosis 3 mg/kg/Tag): -18%; % Veränderung des Cholesterins gegenüber Kontrolle in der Serum-Lipoprotein-Fraktion HDL (Serum-Lipoproteine; Dosis 3 mg/kg/Tag): -2%; % Veränderung des Cholesterins gegenüber Kontrolle in der Serum-Lipoprotein-Fraktion LDL (Serum-Lipoproteine; Dosis 3 mg/kg/Tag): -50%; % Veränderung des Cholesterins gegenüber Kontrolle in der Serum-Lipoprotein-Fraktion VLDL (Serum-Lipoproteine; Dosis 3 mg/kg/Tag): -13% |
| Cc1ccc(S(=O)(=O)N(C)C=Nc2ccc(Sc3ccccc3)cc2)cc1 [Beispiel 25] | -5% | +5% | -45% | -70% |  |
| CCCN(C=Nc1ccc(Oc2ccccc2)cc1)S(=O)(=O)c1ccc(C)cc1 [Beispiel 3] | -5% | +8% | -22% | -32% |  |
| Cc1ccc(S(=O)(=O)N(C)C=Nc2ccccc2C)cc1 [Beispiel 37] | -8% | +3% | -51% |  |  |
| CN(C#N)C=Nc1ccc(Oc2ccccc2)cc1 [Beispiel 48] |  |  |  |  | % Veränderung des Cholesterins gegenüber Kontrolle im Serum (Serum-Lipoproteine; Dosis 3 mg/kg/Tag): -8%; % Veränderung des Cholesterins gegenüber Kontrolle in der Serum-Lipoprotein-Fraktion HDL (Serum-Lipoproteine; Dosis 3 mg/kg/Tag): -2%; % Veränderung des Cholesterins gegenüber Kontrolle in der Serum-Lipoprotein-Fraktion LDL (Serum-Lipoproteine; Dosis 3 mg/kg/Tag): -56% |
| Cc1ccc(S(=O)(=O)N(C)C=Nc2ccc(Cl)cc2C)cc1 [Beispiel 38] | -8% | +2% | -36% | -30% |  |
